Laboratory results as given in US12180220B2, “Heteroaryl modulators of RAS GTPase” (Tosk, Inc., priority 2020, dated 2024).
pIC50: −log10 of the molar value.

The compounds below were run on SW620 Cell Lines (assay: Cell proliferation / cytotoxicity assay (CellTiter-Glo 2.0)). Details: Homo sapiens, SW-620; 72 hours incubation, luminescence (CellTiter-Glo 2.0), 2-fold dilutions starting at 50 μM.
Assay type: cell-based
Experimental: Compounds are assayed for inhibition of cell proliferation and killing cancer cells. Cytotoxicity assays are conducted according to the following general procedure. […] cells (ATCC CCL-227) are maintained in DMEM Low Glucose (Corning 10-014-CV) media supplemented with 10% fetal bovine serum and 1% PenStrep and grown at 37° C. in 5% CO2. Cells are plated into 96 well flat bottom plates (2 million/plate, ˜20,000/well, 200 μL media/well). The cells are allowed to settle and adhere to the plate bottom overnight. Compounds are diluted in media from a 10 mM stock solution starting at 50 μM, using 2-fold dilutions, in a column in a 96-well plate. Media is removed from the plate containing cells and replaced with media containing diluted compounds. Plates are incubated 72 hours at 37° C. in 5% CO2. Plates are allowed to come to room temperature and 100 μL CellTiter-Glo 2.0 reagent (Promega, G924C) is added at room temperature. Plates are shaken for 2 minutes, then allowed to stand for 15 minutes. Luminescence is read with FLx800 (BioTek Instruments). Data is plotted with GraphPad Prizm 8.0.

Row | Compound | pIC50
1 | Cc1nc(N[C@@H]2CCN(C(=O)OC(C)(C)C)[C@@H](C)C2)nc2ccc(-c3ccnc4c3OCCO4)cc12 [Compound 1A] | > 5.30
2 | Cc1nc(NC2CCC(C(=O)NCc3ccc(Cl)cc3)CC2)nc2ccc(-c3cccc4c3OCCO4)cc12 (stereo not shown) [Compound 1B] | 5.00 to 5.30
3 | Cc1ccc2ccc(F)c(-c3ccc4nc(NC5CCN(C(=O)OC(C)(C)C)CC5)nc(C)c4c3)c2n1 [Compound 1C] | > 5.30
4 | Cc1nc(N[C@@H]2CCN(C(=O)OC(C)(C)C)[C@H](C)C2)nc2ccc(-c3ccnc4c3OCCO4)cc12 [Compound 2A] | > 5.30
5 | Cc1nc(N[C@H]2CC[C@@H](C(=O)NC3CCCCC3)CC2)nc2ccc(-c3cccc4c3OCCO4)cc12 [Compound 2B] | 5.00 to 5.30
6 | Cc1ccc2ccc(F)c(-c3ccc4nc(NC5CCN(C(=O)OC(C)C)CC5)nc(C)c4c3)c2n1 [Compound 2C] | 5.00 to 5.30
7 | Cc1nc(N[C@H]2CC[C@@H](NC(=O)OC(C)(C)C)CC2)nc2ccc(-c3ccnc4c3OCCO4)cc12 [Compound 3A] | > 5.30
8 | Cc1nc(N[C@H]2CC[C@@H](C(=O)NC(C)C)CC2)nc2ccc(-c3cccc4c3OCCO4)cc12 [Compound 3B] | 5.00 to 5.30
9 | Cc1nc(N[C@H]2CC[C@H](NC(=O)OC(C)(C)C)CC2)nc2ccc(-c3ccnc4c3OCCO4)cc12 [Compound 4A] | > 5.30
10 | Cc1nc(NC2CCN(C(=O)OC(C)(C)C)CC2)nc2ccc(-c3ccnc4ccccc34)cc12 [Compound 4C] | 5.00 to 5.30
11 | Cc1nc(N[C@H]2C[C@@H](NC(=O)OC(C)(C)C)C2)nc2ccc(-c3ccnc4c3OCCO4)cc12 [Compound 5A] | > 5.30
12 | Cc1nc(NC2CCN(C(=O)OC(C)(C)C)CC2)nc2ccc(-c3cccc4c3CCCC4)cc12 [Compound 5B] | 5.00 to 5.30
13 | Cc1ccc2ccc(F)c(-c3ccc4nc(N[C@H]5CC[C@@H](NC(=O)OC(C)(C)C)CC5)nc(C)c4c3)c2n1 [Compound 5C] | 5.00 to 5.30
14 | Cc1nc(N[C@H]2C[C@H](NC(=O)OC(C)(C)C)C2)nc2ccc(-c3ccnc4c3OCCO4)cc12 [Compound 6A] | > 5.30
15 | Cc1nc(N[C@H]2CC[C@@H](NC(=O)OC(C)(C)C)CC2)nc2ccc(-c3cccc4c3CCCC4)cc12 [Compound 6B] | 5.00 to 5.30
16 | Cc1nc(O[C@H]2CC[C@@H](NC(=O)OC(C)(C)C)CC2)nc2ccc(-c3ccnc4c3OCCO4)cc12 [Compound 7A] | > 5.30
17 | Cc1nc(N[C@H]2CC[C@H](NC(=O)OC(C)(C)C)CC2)nc2ccc(-c3cccc4c3CCCC4)cc12 [Compound 7B] | 5.00 to 5.30
18 | Cc1nc(N[C@H]2CC[C@@H](NC(=O)OC(C)(C)C)CC2)nc2ccc(-c3cccc4c3OCC(=O)N4)cc12 [Compound 7C] | 5.00 to 5.30
19 | Cc1nc(N[C@H]2CC[C@@H](NC(=O)c3ccc(Cl)cc3)CC2)nc2ccc(-c3ccnc4c3OCCO4)cc12 [Compound 8A] | > 5.30
20 | Cc1nc(N[C@@H]2C[C@H]3CC[C@@H](C2)N3C(=O)c2ccc(Cl)cc2)nc2ccc(-c3ccnc4c3OCCO4)cc12 [Compound 8C] | > 5.30
21 | Cc1nc(N[C@H]2CC[C@@H](NC(=O)OC(C)(C)C)CC2)nc2ccc(-c3ccnc4c3OCCO4)c(F)c12 [Compound 9A] | > 5.30
22 | Cc1nc(N[C@H]2CC[C@@H](NC(=O)OC(C)(C)C)CC2)nc2ccc(-c3c(Cl)cnc4c3OCCO4)cc12 [Compound 10A] | > 5.30
23 | Cc1nc(N[C@H]2CCC[C@@H](NC(=O)OC(C)(C)C)C2)nc2ccc(-c3ccnc4c3OCCO4)cc12 [Compound 11A] | > 5.30
24 | Cc1nc(N[C@H]2CC[C@@H](NC(=O)OC(C)(C)C)CC2)nc2ccc(-c3cc[n+]([O-])c4c3OCCO4)cc12 [Compound 12A] | 5.00 to 5.30
25 | Cc1nc(NC2CCN(Cc3ccc(Cl)cc3)CC2)nc2ccc(-c3ccnc4c3OCCO4)cc12 [Compound 13A] | > 5.30
26 | Cc1nc(NC2CCN(C(=O)c3ccc(Cl)cc3)CC2)nc2ccc(-c3ccnc4c3OCCO4)cc12 [Compound 14A] | > 5.30
27 | Cc1nc(N[C@H]2CCN(Cc3ccc(Cl)cc3)[C@@H](C)C2)nc2ccc(-c3ccnc4c3OCCO4)cc12 [Compound 15A] | > 5.30
28 | Cc1nc(N[C@H]2CC[C@@H](NC3Cc4cccc(Cl)c4C3)CC2)nc2ccc(-c3ccnc4c3OCCO4)cc12 (stereo partly shown) [Compound 16A] | > 5.30
